Measurements as given in patent US9096832B2, “Differentiation of human embryonic stem cells” (LifeScan, Inc., priority 2007, dated 2015).

Tested on: H9 embryonic stem cells
Assay: Microarray analysis of definitive endoderm stage cells on […] or MEFs +/- Wnt-3a (Table VI)
Assay type: cell-based, human
Conditions: low serum
Description: Controls for each group included cells plated on [sequence]—coated dishes and cultured in MEF-conditioned medium or cells plated on MEFs and cultured in ES medium. All groups contained three biological replicates and each biological replicate was repeated on two separate gene chips.
Sample preparation, hybridization, and image analysis were performed according to the Affymetrix Human Genome U133 Plus 2.0 Array. Following normalization and a log transformation, data analysis was performed using OmniViz® software (MA) and [sequence] […] Significant differences in gene expression between the samples were evaluated using analysis of variance and an F-test with adjusted P-value (Benjamini and Hochberg correction) of less-than or equal to 0.05. Only genes with a present call in at least one group were included in the analysis.

**Q.** How did the “Intensity (log): neuropilin 1” value (on MATRIGEL) turn out when “Activin A: activin A (a member of the TGFβ superfamily), R&D Systems; 'w/o wnt' in Table VII = 100 ng/ml Activin A without Wnt3a” was run?
**A.** The value was −1.623.

**Q.** And the “Intensity (log): noggin” value (on MATRIGEL)?
**A.** The value was −1.636.

**Q.** What about the “Intensity (log): splicing factor, arginine serine-rich 5” value (on MATRIGEL) of the same substance?
**A.** The value was 0.7481.

**Q.** And the “Intensity (log): stanniocalcin 1” value (on MATRIGEL)?
**A.** Its value is 2.411.

**Q.** What about the “Intensity (log): ESTs” value (on MATRIGEL, r13) of the same substance?
**A.** Its value is −4.827.

**Q.** What about the “Intensity (log): ESTs” value (on MATRIGEL, r16) of the same substance?
**A.** The value was −3.437.

**Q.** And the “Intensity (log): solute carrier family 16 (monocarboxylic acid transporters), member 3” value (on MATRIGEL, r20)?
**A.** The value was −0.06641.

**Q.** What about the “Intensity (log): Homo sapiens solute carrier family 16 (monocarboxylic acid transporters), member 3 (SLC16A3), mRNA” value (on MATRIGEL, r30) of the same substance?
**A.** The value was 0.7103.

**Q.** And the “Intensity (log): ESTs” value (on MATRIGEL, r49)?
**A.** Its value is −0.04716.

**Q.** What about the “Intensity (log): glycophorin B (includes Ss blood group)” value (on MATRIGEL, r50) of the same substance?
**A.** The value was −2.852.

**Q.** What about the “Intensity (log): ESTs” value (on MATRIGEL, r62) of the same substance?
**A.** Its value is −4.936.

**Q.** And the “Intensity (log): Homo sapiens HNF-3beta mRNA for hepatocyte nuclear factor-3 beta, complete cds” value (on MATRIGEL, r66)?
**A.** Its value is −2.718.

**Q.** And the “Intensity (log): ESTs” value (on MATRIGEL, r81)?
**A.** The value was −2.336.

**Q.** What about the “Intensity (log): ESTs” value (on MATRIGEL, r92) of the same substance?
**A.** The value was −2.896.

**Q.** What about the “Intensity (log): ESTs” value (on MATRIGEL, r98) of the same substance?
**A.** Its value is −3.098.

**Q.** And the “Intensity (log): ESTs” value (on MATRIGEL, r108)?
**A.** The value was −1.401.

**Q.** What about the “Intensity (log): Homo sapiens phorbolin-like protein MDS019 (MDS019), mRNA” value (on MATRIGEL, r121) of the same substance?
**A.** The value was −1.119.

**Q.** And the “Intensity (log): ESTs” value (on MATRIGEL, r129)?
**A.** The value was −1.555.

**Q.** And the “Intensity (log): ESTs” value (on MATRIGEL, r136)?
**A.** The value was −0.7315.

**Q.** And the “Intensity (log): ESTs” value (on MATRIGEL, r137)?
**A.** Its value is −2.036.

**Q.** What about the “Intensity (log): ESTs” value (on MATRIGEL, r142) of the same substance?
**A.** Its value is −0.6486.

**Q.** What about the “Intensity (log): ESTs” value (on MATRIGEL, r145) of the same substance?
**A.** The value was −1.782.

**Q.** What about the “Intensity (log): Cluster Incl. AB028021: Homo sapiens HNF-3beta mRNA for hepatocyte nuclear factor-3 beta, complete cds” value (on MATRIGEL, r165) of the same substance?
**A.** Its value is −1.5339.

**Q.** And the “Intensity (log): hypothetical protein FLJ23403” value (on MATRIGEL, r205)?
**A.** The value was −1.456.

**Q.** What about the “Intensity (log): matrix metalloproteinase 14 (membrane-inserted)” value (on MATRIGEL, r215) of the same substance?
**A.** Its value is −2.057.

**Q.** What about the “Intensity (log): Homo sapiens glycophorin B (includes Ss blood group) (GYPB), mRNA” value (on MATRIGEL, r218) of the same substance?
**A.** The value was −0.9473.

**Q.** What about the “Intensity (log): ESTs” value (on MATRIGEL, r234) of the same substance?
**A.** The value was 0.8128.

**Q.** What about the “Intensity (log): ESTs” value (on MATRIGEL, r240) of the same substance?
**A.** The value was 1.068.

**Q.** And the “Intensity (log): ESTs” value (on MATRIGEL, r241)?
**A.** Its value is −1.412.

**Q.** What about the “Intensity (log): KIAA0878 protein” value (on MATRIGEL, r250) of the same substance?
**A.** Its value is 1.1189.

**Q.** And the “Intensity (log): ESTs” value (on MATRIGEL, r260)?
**A.** Its value is 1.481.

**Q.** What about the “Intensity (log): Homo sapiens matrix metalloproteinase 14 (membrane-inserted) (MMP14), mRNA” value (on MATRIGEL, r270) of the same substance?
**A.** Its value is −0.7235.

**Q.** What about the “Intensity (log): ESTs” value (on MATRIGEL, r278) of the same substance?
**A.** The value was 0.5216.

**Q.** What about the “Intensity (log): ESTs” value (on MATRIGEL, r290) of the same substance?
**A.** Its value is 0.3072.

**Q.** What about the “Intensity (log): ESTs” value (on MATRIGEL, r301) of the same substance?
**A.** The value was −3.574.

**Q.** What about the “Intensity (log): ESTs” value (on MATRIGEL, r314) of the same substance?
**A.** The value was −0.05909.

**Q.** What about the “Intensity (log): Homo sapiens hypothetical protein FLJ23403 (FLJ23403), mRNA” value (on MATRIGEL, r315) of the same substance?
**A.** The value was −1.485.

**Q.** And the “Intensity (log): ESTs” value (on MATRIGEL, r319)?
**A.** Its value is −0.1824.

**Q.** And the “Intensity (log): Homo sapiens KIAA0878 protein (KIAA0878), mRNA” value (on MATRIGEL, r332)?
**A.** The value was 2.0265.

**Q.** And the “Intensity (log): phorbolin-like protein MDS019” value (on MATRIGEL, r340)?
**A.** The value was −1.118.

**Q.** And the “Intensity (log): ESTs” value (on MATRIGEL, r347)?
**A.** Its value is 0.3539.

**Q.** And the “Intensity (log): ESTs” value (on MATRIGEL, r376)?
**A.** Its value is −0.3497.

**Q.** And the “Intensity (log): ESTs” value (on MATRIGEL, r377)?
**A.** The value was −0.9033.

**Q.** What about the “Intensity (log): 6-phosphofructo-2-kinasefructose-2,6-biphosphatase 4” value (on MEFS) of the same substance?
**A.** Its value is 1.6.

**Q.** What about the “Intensity (log): ESTs, Highly similar to IHH_HUMAN INDIAN HEDGEHOG PROTEIN PRECURSOR (H. sapiens)” value (on MEFS) of the same substance?
**A.** The value was 0.5905.

**Q.** What about the “Intensity (log): ESTs, Moderately similar to JE0284 Mm-1 cell derived transplantability-associated protein 1b (H. sapiens)” value (on MEFS) of the same substance?
**A.** Its value is 4.222.

**Q.** And the “Intensity (log): ESTs, Weakly similar to FCE2 MOUSE LOW AFFINITY IMMUNOGLOBULIN EPSILON FC RECEPTOR (M. musculus)” value (on MEFS)?
**A.** The value was 3.48.

**Q.** And the “Intensity (log): ESTs, Weakly similar to the 331st table hypothetical protein KIAA0555 (H. sapiens)” value (on MEFS)?
**A.** Its value is 0.4436.

**Q.** And the “Intensity (log): G protein-coupled receptor” value (on MEFS)?
**A.** Its value is 5.053.

**Q.** What about the “Intensity (log): G protein-coupled receptor 49” value (on MEFS) of the same substance?
**A.** The value was 2.505.

**Q.** And the “Intensity (log): Homo sapiens Kell blood group (KEL), mRNA” value (on MEFS)?
**A.** Its value is −0.3839.

**Q.** And the “Intensity (log): Homo sapiens MLL septin-like fusion (MSF), mRNA” value (on MEFS)?
**A.** The value was −1.5.

**Q.** And the “Intensity (log): Homo sapiens Mix-like homeobox protein 1 (MILD1) mRNA, complete cds” value (on MEFS)?
**A.** Its value is 0.922.

**Q.** And the “Intensity (log): Homo sapiens Rho GTPase activating protein 6 (ARHGAP6), transcript variant 2, mRNA” value (on MEFS)?
**A.** Its value is −1.285.

**Q.** And the “Intensity (log): Homo sapiens TBX3-iso protein (TBX3-iso), mRNA” value (on MEFS)?
**A.** The value was 1.07.

**Q.** And the “Intensity (log): Homo sapiens angiopoietin 2 (ANGPT2), mRNA” value (on MEFS)?
**A.** Its value is 0.5968.

**Q.** What about the “Intensity (log): Homo sapiens ankyrin-like with transmembrane domains 1 (ANKTM1), mRNA” value (on MEFS) of the same substance?
**A.** The value was 2.819.

**Q.** And the “Intensity (log): Homo sapiens apolipoprotein A-I (APOA1), mRNA” value (on MEFS)?
**A.** The value was 2.469.

**Q.** And the “Intensity (log): Homo sapiens apolipoprotein A-II (APOA2), mRNA” value (on MEFS)?
**A.** Its value is 4.469.

**Q.** And the “Intensity (log): Homo sapiens arylsulfatase E (chondrodysplasia punctata 1) (ARSE), mRNA” value (on MEFS)?
**A.** The value was 3.184.

**Q.** What about the “Intensity (log): Homo sapiens atrophin-1 interacting protein 1; activin receptor interacting protein 1 (KIAA0705), mRNA” value (on MEFS) of the same substance?
**A.** Its value is −1.32.

**Q.** And the “Intensity (log): Homo sapiens beta-site APP cleaving enzyme (BACE) mRNA, complete cds” value (on MEFS)?
**A.** Its value is 1.754.

**Q.** What about the “Intensity (log): Homo sapiens cDNA FLJ11550 fis, clone HEMBA1002970” value (on MEFS) of the same substance?
**A.** The value was 4.216.

**Q.** What about the “Intensity (log): Homo sapiens cDNA FLJ12993 fis, clone NT2RP3000197” value (on MEFS) of the same substance?
**A.** Its value is 2.069.

**Q.** And the “Intensity (log): Homo sapiens cDNA FLJ13221 fis, clone NT2RP4002075” value (on MEFS)?
**A.** Its value is 1.31.

**Q.** And the “Intensity (log): Homo sapiens cardiac ventricular troponin C mRNA, complete cds” value (on MEFS)?
**A.** Its value is 1.4377.

**Q.** And the “Intensity (log): Homo sapiens cartilage linking protein 1 (CRTL1), mRNA” value (on MEFS)?
**A.** The value was −0.8052.

**Q.** What about the “Intensity (log): Homo sapiens cell adhesion molecule with homology to L1CAM (close homologue of L1) (CHL1), mRNA” value (on MEFS) of the same substance?
**A.** Its value is −2.5002.

**Q.** What about the “Intensity (log): Homo sapiens chromosome 19, cosmid R31181” value (on MEFS) of the same substance?
**A.** The value was 0.2239.

**Q.** And the “Intensity (log): Homo sapiens clone 23736 mRNA sequence” value (on MEFS)?
**A.** The value was 4.507.

**Q.** And the “Intensity (log): Homo sapiens cryptic mRNA, complete cds” value (on MEFS)?
**A.** Its value is −0.6735.

**Q.** And the “Intensity (log): Homo sapiens cystatin S (CST4), mRNA” value (on MEFS)?
**A.** Its value is 3.87.

**Q.** And the “Intensity (log): Homo sapiens cystatin SA (CST2), mRNA” value (on MEFS)?
**A.** Its value is 2.1671.

**Q.** And the “Intensity (log): Homo sapiens cystatin SN (CST1), mRNA” value (on MEFS)?
**A.** The value was 4.64.

**Q.** And the “Intensity (log): Homo sapiens cytidine deaminase (CDA), mRNA” value (on MEFS)?
**A.** The value was −1.67.

**Q.** What about the “Intensity (log): Homo sapiens dual specificity phosphatase 4 (DUSP4), mRNA” value (on MEFS) of the same substance?
**A.** The value was 4.122.

**Q.** What about the “Intensity (log): Homo sapiens fibroblast growth factor 8 (androgen-induced) (FGF8), mRNA” value (on MEFS) of the same substance?
**A.** The value was 0.01583.

**Q.** And the “Intensity (log): Homo sapiens fibroblast growth factor 17 (FGF17), mRNA” value (on MEFS)?
**A.** Its value is 2.4872.

**Q.** What about the “Intensity (log): Homo sapiens frizzled-related protein (FRZB), mRNA” value (on MEFS) of the same substance?
**A.** Its value is 3.676.

**Q.** What about the “Intensity (log): Homo sapiens gastrin-releasing peptide (GRP), mRNA” value (on MEFS) of the same substance?
**A.** Its value is 0.5098.

**Q.** And the “Intensity (log): Homo sapiens glycophorin E (GYPE), mRNA” value (on MEFS)?
**A.** The value was −1.501.

**Q.** What about the “Intensity (log): Homo sapiens glycophorin Erik STA (GPErik) gene complete cds” value (on MEFS) of the same substance?
**A.** Its value is −0.4544.

**Q.** What about the “Intensity (log): Homo sapiens growth differentiation factor 3 (GDF3), mRNA” value (on MEFS) of the same substance?
**A.** The value was 2.875.

**Q.** And the “Intensity (log): Homo sapiens haptoglobin (HP), mRNA” value (on MEFS)?
**A.** The value was 0.477.
